According to publication PMC7305236, “The atypical chemokine receptor ACKR3/CXCR7 is a broad-spectrum scavenger for opioid peptides” (Nature Communications, 2020):
Read-outs that look alike come from different tables or passages of the source.

Experiments:
CXCR3A = biological target: T1, CXCR3A (Homo sapiens, UniProt P49682); test: Figure S2a opioid peptide screen on chemokine receptors; type: cell-based; parameters: dose or concentration left out as unconfirmed; details: replicate 1, read-out: CXCR3A activity, ctrl+ = 100
T1 construct: expressed in transfected cells; host or cells: U87 cells
T1 sequence (P49682 1-368): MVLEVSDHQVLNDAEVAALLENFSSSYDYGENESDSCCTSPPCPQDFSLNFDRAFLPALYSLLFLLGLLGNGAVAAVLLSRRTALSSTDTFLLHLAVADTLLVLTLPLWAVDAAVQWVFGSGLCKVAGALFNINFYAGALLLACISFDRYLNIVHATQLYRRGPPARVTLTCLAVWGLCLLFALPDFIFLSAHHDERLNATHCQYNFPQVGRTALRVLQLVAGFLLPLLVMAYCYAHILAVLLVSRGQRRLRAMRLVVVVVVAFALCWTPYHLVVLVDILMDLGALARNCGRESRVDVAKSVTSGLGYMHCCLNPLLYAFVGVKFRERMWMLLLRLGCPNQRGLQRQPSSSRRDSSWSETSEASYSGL

CCR6 = biological target: T2, CCR6 (Homo sapiens, UniProt P51684); test: as above; type: cell-based; parameters: dose or concentration left out as unconfirmed; details: replicate 1, read-out: CCR6 activity, ctrl+ = 100
T2 construct: expressed in transfected cells
T2 sequence (P51684 1-374): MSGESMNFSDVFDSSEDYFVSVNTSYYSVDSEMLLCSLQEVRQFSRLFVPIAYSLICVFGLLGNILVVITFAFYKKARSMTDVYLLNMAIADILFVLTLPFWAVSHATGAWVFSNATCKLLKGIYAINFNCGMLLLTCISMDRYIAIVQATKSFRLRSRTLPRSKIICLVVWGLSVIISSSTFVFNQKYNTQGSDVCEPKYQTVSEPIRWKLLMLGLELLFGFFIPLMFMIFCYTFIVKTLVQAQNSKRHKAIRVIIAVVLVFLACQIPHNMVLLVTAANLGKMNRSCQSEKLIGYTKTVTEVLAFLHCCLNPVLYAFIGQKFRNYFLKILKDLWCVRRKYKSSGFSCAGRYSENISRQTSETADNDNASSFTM

CCR3 = biological target: T3, CCR3 (Homo sapiens, UniProt P51677); test: as above; parameters: dose or concentration left out as unconfirmed; details: read-out: CCR3 activity, ctrl+ = 100, Figure S2a
T3 sequence (P51677 1-355): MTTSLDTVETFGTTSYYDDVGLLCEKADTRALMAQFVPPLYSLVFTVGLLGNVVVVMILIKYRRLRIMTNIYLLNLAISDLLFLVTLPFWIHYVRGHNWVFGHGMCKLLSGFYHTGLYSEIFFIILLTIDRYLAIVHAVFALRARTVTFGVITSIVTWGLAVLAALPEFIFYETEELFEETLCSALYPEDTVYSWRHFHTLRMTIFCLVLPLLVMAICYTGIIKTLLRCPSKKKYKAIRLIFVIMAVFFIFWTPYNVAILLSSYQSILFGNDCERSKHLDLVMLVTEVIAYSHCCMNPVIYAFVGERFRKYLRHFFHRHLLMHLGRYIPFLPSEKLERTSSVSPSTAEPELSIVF

ACKR2 = biological target: T4, ACKR2 (Homo sapiens, UniProt O00590); test: as above; type: cell-based; parameters: dose or concentration left out as unconfirmed; details: replicate 2, read-out: ACKR2 activity, ctrl+ = 100
T4 construct: expressed in transfected cells; host or cells: U87 cells (human glioblastoma)
T4 sequence (O00590 1-384): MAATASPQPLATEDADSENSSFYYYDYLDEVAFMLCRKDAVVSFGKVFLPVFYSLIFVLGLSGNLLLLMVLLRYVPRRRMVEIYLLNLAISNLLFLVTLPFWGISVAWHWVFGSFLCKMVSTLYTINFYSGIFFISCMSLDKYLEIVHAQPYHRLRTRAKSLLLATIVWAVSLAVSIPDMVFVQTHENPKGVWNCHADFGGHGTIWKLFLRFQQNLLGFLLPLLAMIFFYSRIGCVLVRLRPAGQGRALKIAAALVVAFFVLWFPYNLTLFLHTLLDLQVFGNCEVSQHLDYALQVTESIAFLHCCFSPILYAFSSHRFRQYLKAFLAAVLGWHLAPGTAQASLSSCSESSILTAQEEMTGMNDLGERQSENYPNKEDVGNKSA

ACKR3 [1] = biological target: T5, ACKR3 (Homo sapiens, UniProt P25106); test: cell-based; parameters: dose or concentration left out as unconfirmed; details: read-out: ACKR3 activity, ctrl+ = 100, Figure S2a; replicate 2
CCR1 = biological target: T6, CCR1 (Homo sapiens, UniProt P32246); test: Figure S2a opioid peptide screen on chemokine receptors; type: cell-based; parameters: dose or concentration left out as unconfirmed; details: replicate 1, read-out: CCR1 activity, ctrl+ = 100
T6 construct: expressed in transfected cells
T6 sequence (P32246 1-355): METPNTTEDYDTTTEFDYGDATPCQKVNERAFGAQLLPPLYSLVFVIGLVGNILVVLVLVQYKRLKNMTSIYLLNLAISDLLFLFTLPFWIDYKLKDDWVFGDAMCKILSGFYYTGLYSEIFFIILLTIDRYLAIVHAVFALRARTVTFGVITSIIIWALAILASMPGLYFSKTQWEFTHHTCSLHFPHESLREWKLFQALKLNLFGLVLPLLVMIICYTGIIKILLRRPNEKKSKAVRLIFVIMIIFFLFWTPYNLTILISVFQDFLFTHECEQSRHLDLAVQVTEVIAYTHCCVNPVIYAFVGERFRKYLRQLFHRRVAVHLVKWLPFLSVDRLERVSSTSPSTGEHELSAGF

CXCR4 = biological target: T7, CXCR4 (Homo sapiens, UniProt P61073); type: cell-based
T7 construct: expressed in transfected cells; host or cells: U87, transient cotransfection of pNBe vectors

ACKR = biological target: T8, ACKR (Homo sapiens, UniProt P25106); test: Figure 6h, ACKR, DMSO vs Bafilomycin treatment; type: cell-based; details: n = 3 or 4 as in cell
T8 construct: expressed in transfected cells; host or cells: U87 cells (human glioblastoma)

KOR [2] = biological target: T9, KOR (Homo sapiens, UniProt P41145); test: Figure 6h, KOR, DMSO vs Bafilomycin treatment; type: cell-based; parameters: expressed in transfected cells; host or cells: U87 (human glioblastoma); details: n = 3 or 4 as in cell
ACKR3 [3] = biological target: T5, ACKR3; type: cell-based; parameters: expressed in transfected cells; details: 100 nM
NOP = NOP (Homo sapiens, UniProt P41146); test: Activity of ligands towards NOP (source data Fig 4a, 4c); type: cell-based; details: 100 nM
DOR = biological target: T10, DOR (Homo sapiens, UniProt P41143); type: cell-based; details: 100 nM
T10 construct: expressed in transfected cells; host or cells: U87 (human glioblastoma)

KOR [4] = biological target: T9, KOR; type: cell-based; parameters: expressed in transfected cells; host or cells: U87 (human glioblastoma), transient co-transfection; details: 100 nM
CXCR7 = biological target: T11, CXCR7 (Homo sapiens, UniProt P25106); test: Figure S1a: screen of opioid peptides on CXCR7; type: cell-based
T11 construct: expressed in transfected cells; host or cells: U87 cells

U87 ACKR3 = biological target: T12, U87 ACKR3 (Homo sapiens, UniProt P25106); test: Figure 6c source data, U87 ACKR3; type: cell-based; details: Figure 6c inset, U87 ACKR3 + labelled peptide, titrated agonist not given
T12 construct: expressed in transfected cells

[5] = 'DMSO vs Bafilomycin treatment'
[6] = first of two columns under 'DMSO vs Bafilomycin treatment' (presumably DMSO)

T7 sequence (P61073 whole entry): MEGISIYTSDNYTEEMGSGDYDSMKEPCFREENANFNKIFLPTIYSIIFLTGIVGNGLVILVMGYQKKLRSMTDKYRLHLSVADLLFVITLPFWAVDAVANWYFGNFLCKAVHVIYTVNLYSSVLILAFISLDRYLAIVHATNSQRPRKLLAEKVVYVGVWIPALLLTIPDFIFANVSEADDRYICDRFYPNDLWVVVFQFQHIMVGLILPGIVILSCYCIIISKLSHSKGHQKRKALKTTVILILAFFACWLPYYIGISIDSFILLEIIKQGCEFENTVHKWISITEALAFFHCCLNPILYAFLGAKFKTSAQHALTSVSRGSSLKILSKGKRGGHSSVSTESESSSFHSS
T12 sequence (P25106 whole entry): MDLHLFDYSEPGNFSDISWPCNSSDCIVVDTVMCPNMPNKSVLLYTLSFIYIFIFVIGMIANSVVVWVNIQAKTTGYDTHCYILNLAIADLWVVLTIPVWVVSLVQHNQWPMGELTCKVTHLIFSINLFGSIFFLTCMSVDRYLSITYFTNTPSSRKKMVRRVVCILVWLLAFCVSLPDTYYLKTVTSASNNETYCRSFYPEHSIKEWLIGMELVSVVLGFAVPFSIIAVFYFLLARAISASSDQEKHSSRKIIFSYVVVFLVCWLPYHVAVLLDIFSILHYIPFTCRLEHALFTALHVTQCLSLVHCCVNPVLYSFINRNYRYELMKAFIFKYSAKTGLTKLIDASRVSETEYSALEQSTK
T5 sequence (P25106 whole entry): as above
T10 sequence (P41143 whole entry): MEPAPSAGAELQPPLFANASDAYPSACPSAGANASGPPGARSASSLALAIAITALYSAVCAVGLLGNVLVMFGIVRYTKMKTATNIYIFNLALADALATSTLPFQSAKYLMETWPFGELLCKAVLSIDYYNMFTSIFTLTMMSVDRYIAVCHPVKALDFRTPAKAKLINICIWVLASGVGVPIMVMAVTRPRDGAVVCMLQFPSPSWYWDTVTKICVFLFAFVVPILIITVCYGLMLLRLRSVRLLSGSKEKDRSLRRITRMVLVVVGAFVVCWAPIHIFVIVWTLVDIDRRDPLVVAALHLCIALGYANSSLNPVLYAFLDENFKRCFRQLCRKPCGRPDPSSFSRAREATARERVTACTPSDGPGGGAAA
Chain of NOP (P41146 whole entry): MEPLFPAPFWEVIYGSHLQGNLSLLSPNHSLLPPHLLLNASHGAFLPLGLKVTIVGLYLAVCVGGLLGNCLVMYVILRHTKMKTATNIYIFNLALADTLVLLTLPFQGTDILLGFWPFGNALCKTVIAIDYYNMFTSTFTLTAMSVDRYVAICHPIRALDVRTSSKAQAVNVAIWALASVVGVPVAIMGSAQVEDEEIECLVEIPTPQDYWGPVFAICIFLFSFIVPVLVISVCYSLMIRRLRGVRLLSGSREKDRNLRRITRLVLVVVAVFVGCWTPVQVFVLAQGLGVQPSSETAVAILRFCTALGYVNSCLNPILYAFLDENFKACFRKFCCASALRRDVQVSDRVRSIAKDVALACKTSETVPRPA
T9 sequence (P41145 whole entry): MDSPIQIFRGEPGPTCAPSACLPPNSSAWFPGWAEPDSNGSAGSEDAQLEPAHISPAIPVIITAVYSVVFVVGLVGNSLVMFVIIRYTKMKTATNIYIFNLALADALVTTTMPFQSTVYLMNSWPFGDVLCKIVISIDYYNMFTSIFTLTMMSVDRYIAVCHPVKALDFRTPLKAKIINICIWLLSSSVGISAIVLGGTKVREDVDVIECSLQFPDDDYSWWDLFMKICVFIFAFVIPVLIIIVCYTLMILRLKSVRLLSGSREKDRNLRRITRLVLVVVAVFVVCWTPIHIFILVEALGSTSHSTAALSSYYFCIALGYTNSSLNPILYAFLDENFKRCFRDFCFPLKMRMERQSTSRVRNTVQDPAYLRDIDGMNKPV
T11 sequence (P25106 whole entry): as the sequence (P25106 whole entry) above
T8 sequence (P25106 whole entry): as above

`CC[C@H](C)[C@H](NC(=O)[C@H](C)NC(=O)[C@H](CC(N)=O)NC(=O)[C@H](CCCCN)NC(=O)[C@H](Cc1ccccc1)NC(=O)[C@H](CC(C)C)NC(=O)[C@@H](NC(=O)[C@@H](NC(=O)[C@H](CC(C)C)NC(=O)[C@@H]1CCCN1C(=O)[C@@H](NC(=O)[C@H](CCC(N)=O)NC(=O)[C@H](CO)NC(=O)[C@H](CCCCN)NC(=O)[C@H](CCC(=O)O)NC(=O)[C@H](CO)NC(=O)[C@@H](NC(=O)[C@H](CCSC)NC(=O)[C@H](Cc1ccccc1)NC(=O)CNC(=O)CNC(=O)[C@@H](N)Cc1ccc(O)cc1)[C@@H](C)O)[C@@H](C)O)C(C)C)[C@@H](C)O)C(=O)N[C@H](C(=O)N[C@@H](CCCCN)C(=O)N[C@@H](CC(N)=O)C(=O)N[C@@H](C)C(=O)N[C@@H](Cc1ccc(O)cc1)C(=O)N[C@@H](CCCCN)C(=O)N[C@@H](CCCCN)C(=O)NCC(=O)N[C@@H](CCC(=O)O)C(=O)O)[C@@H](C)CC` [-endorphin] was tested, and the activation (CXCR3A) was 2.35%, the activation (CCR6) was 1.21% and the activation (CCR3; replicate 1) was 5.63%. The activation (CCR3; replicate 2) was 8.01%, the activation (ACKR2) was 16.8% and the activation (ACKR3 [1]) was 3.39%. It also gave an activation (CCR1) of 6.2%.

With `c1cc(CN2CCCNCCNCCCNCC2)ccc1CN1CCCNCCNCCCNCC1` [AMD3100] the “Figure S1a value, CXCR4” value (CXCR4; replicate 1) was -2.401 and the “Figure S1a value, CXCR4” value (CXCR4; replicate 2) was 38.4908.

With `CSCC[C@H](NC(=O)[C@H](Cc1ccccc1)NC(=O)CNC(=O)CNC(=O)[C@@H](N)Cc1ccccc1)C(=O)N[C@@H](CCCNC(=N)N)C(=O)N[C@@H](CCCNC(=N)N)C(=O)N[C@@H](CCCCN)C(N)=O` [LIH383] the “Mean ± SEM (Figure 6h, ACKR)” value (ACKR; [5]) was 25,99 ± 1,65, n=3, the “Mean ± SEM (Figure 6h, ACKR)” value (ACKR; [6]) was 41,87 ± 2,846, n=3 and the “Mean ± SEM (Figure 6h, KOR)” value (KOR [2]; [5]) was 102,6 ± 3,011, n=3. The “Mean ± SEM (Figure 6h, KOR)” value (KOR [2]; [6]) was 99,75 ± 4,761, n=3.

In the case of `C=CCN1CC[C@]23CCCC[C@H]2[C@H]1Cc1ccc(O)cc13` [Levallorphan], the “ACKR3 activity, Fig 4a” value (ACKR3 [3]; replicate 1) is reported as 29.7947, the “ACKR3 activity, Fig 4a” value (ACKR3 [3]; replicate 2) is reported as -20.4867 and the “ACKR3 activity, Fig 4a” value (ACKR3 [3]; replicate 3) is reported as -0.5025. For the same molecule, the “NOP activity, Fig 4a” value (NOP; replicate 1) was 19.6254, the “NOP activity, Fig 4a” value (NOP; replicate 2) was -2.413 and the “NOP activity, Fig 4a” value (NOP; replicate 3) was -13.909. For the same molecule, the “DOR activity, Fig 4a” value (DOR; replicate 1) was -48.6722, the “DOR activity, Fig 4a” value (DOR; replicate 2) was -49.4812 and the “DOR activity, Fig 4a” value (DOR; replicate 3) was -45.6651. The “KOR activity, Fig 4a” value (KOR [4]; replicate 1) was -79.0502, the “KOR activity, Fig 4a” value (KOR [4]; replicate 2) was -66.9071 and the “KOR activity, Fig 4a” value (KOR [4]; replicate 3) was -81.2861.

For `C=CCN1CC[C@]23c4c5ccc(O)c4O[C@H]2C(=O)CC[C@@]3(O)[C@H]1C5` [Naloxone], the “ACKR3 activity, Fig 4a” value (ACKR3 [3]; replicate 1) was -16.5596, the “ACKR3 activity, Fig 4a” value (ACKR3 [3]; replicate 2) was -16.7812 and the “ACKR3 activity, Fig 4a” value (ACKR3 [3]; replicate 3) was -9.5257.

`Oc1ccc2c3c1O[C@H]1c4[nH]c5ccccc5c4C[C@@]4(O)[C@@H](C2)N(CC2CC2)CC[C@]314` [Naltrindole] was tested, and the “ACKR3 activity, Fig 4a” value (ACKR3 [3]; replicate 1) was 7.799, the “ACKR3 activity, Fig 4a” value (ACKR3 [3]; replicate 2) was 7.647 and the “ACKR3 activity, Fig 4a” value (ACKR3 [3]; replicate 3) was 1.281.

`Oc1ccc2c3c1O[C@H]1c4[nH]c5c(c4C[C@@]4(O)[C@@H](C2)N(CC2CC2)CC[C@]314)C[C@@]1(O)[C@H]2Cc3ccc(O)c4c3[C@@]1(CCN2CC1CC1)[C@H]5O4` [nor-Binaltrophimine] was tested, and the “ACKR3 activity, Fig 4a” value (ACKR3 [3]; replicate 1) was 6.23, the “ACKR3 activity, Fig 4a” value (ACKR3 [3]; replicate 2) was 7.454 and the “ACKR3 activity, Fig 4a” value (ACKR3 [3]; replicate 3) was 1.2819. The “NOP activity, Fig 4a” value (NOP; replicate 1) was 13.2975, the “NOP activity, Fig 4a” value (NOP; replicate 2) was 23.1448 and the “NOP activity, Fig 4a” value (NOP; replicate 3) was -11.7109.

In the case of Buprenorphine, the “ACKR3 activity, Fig 4a” value (ACKR3 [3]; replicate 1) is reported as -5.792, the “ACKR3 activity, Fig 4a” value (ACKR3 [3]; replicate 2) is reported as 26.4917 and the “ACKR3 activity, Fig 4a” value (ACKR3 [3]; replicate 3) is reported as -14.8896.

For CXCL11, the “Figure S1a value, CXCR4” value (CXCR4; replicate 1) was 49.1082, the “Figure S1a value, CXCR4” value (CXCR4; replicate 2) was 78.3882 and the “Figure S1a value, CXCR7” value (CXCR7; replicate 1) was 84.3234. For the same molecule, the “Figure S1a value, CXCR7” value (CXCR7; replicate 2) was 115.296.

Work on H-MRRKFGGF-NH2 [LIH inverse] yielded an EC50 (U87 ACKR3; replicate 1) of 64.8 nM, an EC50 (U87 ACKR3; replicate 2) of 119 nM and an EC50 (U87 ACKR3; replicate 3) of 112 nM. For the same molecule, the EC50 (U87 ACKR3; replicate 4) was 71.7 nM.
